# Test results taken from patent US4659716A, “Antihistaminic 8-(halo)-substituted 6,11-dihydro-11-(4-piperidylidene)-5H-benzo[5,6]cyclohepta[1,2-b]pyridin es” (Schering Corporation, priority 1986, dated 1987).
# Tests used:
# [1] = test system: histamine-induced paw edema; experiment: Histamine-induced paw edema in mice (oral); assay type: in vivo, mice (male CF1)
# Method: For example, the ability of the compounds to reduce histamine-induced paw edema in mice may be measured by use of the following method.
# Male CF1 mice, 25-30 g, are housed under conditions of controlled temperature and humidity with a 12 hour dark/light cycle. Food and water are allowed ad libitum. The mice are randomly assigned to the treatment groups. One hour after treatment with a compound of the invention or vehicle, the mice are lightly anesthetized with ether. The left hind paw of each mouse serves as a control and is injected with 25 μl of isotonic saline. The right hind paw serves as the experimental paw and is injected with 25 μl of isotonic saline containing 13 μg histamine dihydrochloride. Thirty minutes later the mice are killed by cervical dislocation and both hind paws of each mouse are removed by cutting at the tarsal joint. The weight of each paw is recorded and the difference in weight between the compound-treated and the placebo-treated groups is evaluated using Student's "t" test. The ED50 values (the dose causing 50% inhibition of histamine-induced edema) and 95% confidence limits are determind by the Linear Least Square Dose-Response method [Brownlee, K. A., "Statistical Theory And Methodology In Science and Engineering", 2nd Ed., J. Wiley and Sons, New York, 1965, pp. 346-349].
# [2] = test system: behavior, neurologic function and autonomic function in mice; conditions: po; score of 2 or greater in at least 3 of 6 animals
# Source text: A semiquantitative scoring scale was used where signs normally present (e.g., spontaneous activity, alertness, pupil size) were assigned a "normal" score of 0 and scores of +1, +2 and +3 indicated slight, moderate and marked increases and scores of -1, -2 and -3 indicated slight, moderate and marked decreases from "normality". When a sign occurred that is not normally present (e.g., convulsions, tremors), its magnitude was graded on a 1-3 scale. Each treatment group consisted of 6 animals and evaluations were conducted 1 hour after dosing. Additional observations for lethality were made for up to 24 hours after dosing. Incidence is defined as the observation occurring in an animal with a score of 2 or greater according to the scoring method defined above.
# ^a Minimal effective dose, defined as the lowest dose that produced a
# [3] = test system: histamine-induced lethality; experiment: Prevention of histamine-induced lethality in guinea pigs (A); assay type: in vivo, guinea pigs (female albino); conditions: Cavia porcellus; oral, 1 hour prior to i.v. histamine 1.1 mg/kg; read-out: Antihistaminic Activity, A. G. pig. p.o. ED50
# Method: A. Prevention of histamine-induced lethality in guinea pigs. […] Doses of the antagonists were administered orally to separate groups of fasted animals 1 hour prior to the challenge with histamine and protection from death recorded for 30 minutes after histamine. ED50 values were determined for each drug by […].
# [4] = Antagonism of physostigmine lethality (B); assay type: in vivo, mice; conditions: mouse, physostigmine-induced lethality; oral, unit inferred; read-out: ED50 in the physostigmine-induced lethality test
# Method: B. Antagonism of Physostigmine Lethality. […] Physostigmine salicylate (b 1.0 mg/kg s.c.) produces 100% lethality when administered to mice grouped 10 per plastic cage (11×26×13 cm). Test agents were administered orally 30 minutes prior to physostigmine. The number of survivors were counted 20 minutes after physostigmine administration.
# CNS activity = experiment: CNS test procedures B, C and D taken together; assay type: in vivo, mice; conditions: oral
# Method: C. […] Mice were injected with 0.6% aqueous acetic acid at 10 mg/kg i.p. 15 minutes after oral administration of the test drug. The number of writhes for each animal was counted during a 10 minute period starting 3 minutes after acetic acid treatment. A writhe was defined as a sequence of arching of the back, pelvic rotation and hind limb extension.
# One hour after oral administration of the test drug or vehicle, mice were administered a 13 mA, 60 cycle a.c. electroconvulsant shock (ECS) for 0.2 seconds via corneal electrodes.
# [5] = Toxicity (no method given); conditions: in vivo
SMILES,"Increased Paw Weight, Mean ([1]; oral dose 0.03 mg/kg, 8 animals)","Increased Paw Weight, Mean ([1]; oral dose 0.1 mg/kg, 7 animals)","Increased Paw Weight, Mean ([1]; oral dose 0.3 mg/kg, 8 animals)","Increased Paw Weight, Mean ([1]; oral dose 1.0 mg/kg, 8 animals)","MED, Lethality [2]","ED50 ([1]; Mus musculus, po, 1 h)",ED50 [3],ED50 [4],Activity in all of the CNS test procedures (CNS activity),Toxicity [5]
"Clc1ccc2c(c1)CCc1cccnc1C2=C1CCNCC1 [Compound A, 8-chloro-6,11-dihydro-11-(4-piperidylidene)-5H-benzo[5,6]cyclohepta[1,2-b]pyridine]",19.9 mg,13.0 mg,6.1 mg,2.5 mg,300 mg/kg,–,–,–,–,–
"Fc1ccc2c(c1)CCc1cccnc1C2=C1CCNCC1 [Compound B, 8-fluoro-6,11-dihydro-11-(4-piperidylidene)-5H-benzo[5,6]cyclohepta[1,2-b]pyridine]",–,–,–,–,–,< 3 mg/kg,0.09 mg/kg,> 320 mg/kg,relatively inactive,very low toxicity
